Results published in PubChem BioAssay (NCI).
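Tested at 5 concentrations; 48 h exposure; 96-well plates; endpoints linearly interpolated, else capped at highest concentration. TGI is the concentration that stops growth completely.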

What was measured:
Experiment in all cases: DTP human tumour cell line panel, 48 h
MDA-MB-231 breast = tested on: MDA-MB-231 breast
SK-MEL-28 melanoma = tested on: SK-MEL-28 melanoma
SF-539 CNS = tested on: SF-539 CNS
OVCAR-5 ovarian = tested on: OVCAR-5 ovarian
SK-OV-3 ovarian = tested on: SK-OV-3 ovarian
MDA-N = tested on: MDA-N
MDA-MB-435 = tested on: MDA-MB-435
SF-295 CNS = tested on: SF-295 CNS
OVCAR-4 ovarian = tested on: OVCAR-4 ovarian
U251 CNS = tested on: U251 CNS
HT29 colon = tested on: HT29 colon
HCT-116 colon = tested on: HCT-116 colon
MCF7 breast = tested on: MCF7 breast
IGROV1 ovarian = tested on: IGROV1 ovarian
SW-620 colon = tested on: SW-620 colon
A498 renal = tested on: A498 renal
UACC-257 melanoma = tested on: UACC-257 melanoma
CCRF-CEM leukemia = tested on: CCRF-CEM leukemia
786-0 renal = tested on: 786-0 renal
MOLT-4 leukemia = tested on: MOLT-4 leukemia
M14 melanoma = tested on: M14 melanoma
UACC-62 melanoma = tested on: UACC-62 melanoma
OVCAR-8 ovarian = tested on: OVCAR-8 ovarian
TK-10 renal = tested on: TK-10 renal
PC-3 prostate = tested on: PC-3 prostate
SK-MEL-2 melanoma = tested on: SK-MEL-2 melanoma
SK-MEL-5 melanoma = tested on: SK-MEL-5 melanoma
EKVX NSCLC = tested on: EKVX NSCLC
NCI/ADR-RES ovarian = tested on: NCI/ADR-RES ovarian
HCC-2998 colon = tested on: HCC-2998 colon
NCI-H226 lung = tested on: NCI-H226 lung
BT-549 breast = tested on: BT-549 breast
UO-31 renal = tested on: UO-31 renal
SN12C renal = tested on: SN12C renal
KM12 colon = tested on: KM12 colon
SNB-19 CNS = tested on: SNB-19 CNS
HOP-92 NSCLC = tested on: HOP-92 NSCLC
NCI-H23 lung = tested on: NCI-H23 lung
LOX IMVI melanoma = tested on: LOX IMVI melanoma
ACHN renal = tested on: ACHN renal
HOP-62 NSCLC = tested on: HOP-62 NSCLC
CAKI-1 renal = tested on: CAKI-1 renal
A549 NSCLC = tested on: A549 NSCLC
T-47D breast = tested on: T-47D breast
DU-145 prostate = tested on: DU-145 prostate
HCT-15 colon = tested on: HCT-15 colon
OVCAR-3 ovarian = tested on: OVCAR-3 ovarian
HL-60(TB) leukemia = tested on: HL-60(TB) leukemia
COLO 205 colon = tested on: COLO 205 colon
RXF 393 renal = tested on: RXF 393 renal
SNB-75 CNS = tested on: SNB-75 CNS
NCI-H460 lung = tested on: NCI-H460 lung
MALME-3M melanoma = tested on: MALME-3M melanoma
RPMI-8226 leukemia = tested on: RPMI-8226 leukemia
SF-268 CNS = tested on: SF-268 CNS
K-562 leukemia = tested on: K-562 leukemia
HS 578T breast = tested on: HS 578T breast
NCI-H522 lung = tested on: NCI-H522 lung
SR leukemia = tested on: SR leukemia

Measured: TGI

COc1cccc(CN(C(=O)/C=C\Sc2ccccc2)C(C)(C)C)c1
70.8 µM: HOP-92 NSCLC
not listed: RXF 393 renal | SNB-75 CNS | NCI-H460 lung | MALME-3M melanoma | RPMI-8226 leukemia | SF-268 CNS | K-562 leukemia | HS 578T breast | NCI-H522 lung | SR leukemia
> 100 µM: all other assays above

NC(=S)N/N=C\CC(O)(C(F)(F)F)C(F)(F)F
not listed: OVCAR-5 ovarian | BT-549 breast
> 10 µM: all other assays above

CCCC(=O)Nc1cc(/C=C/C(=O)N2CC(CCl)c3ccc(N)cc32)n(C)c1 (configuration not stated)
0.675 µM: MDA-N
0.813 µM: BT-549 breast
0.572 µM: SK-MEL-2 melanoma
6.62 µM: SN12C renal
0.809 µM: NCI-H23 lung
0.385 µM: CAKI-1 renal
0.3 µM: COLO 205 colon
0.429 µM: SF-539 CNS
14.1 µM: HCT-116 colon
0.796 µM: NCI-H460 lung
> 43.2 µM: SNB-19 CNS
0.601 µM: T-47D breast
0.0523 µM: A498 renal
2.92 µM: 786-0 renal
0.471 µM: TK-10 renal
0.0834 µM: NCI-H522 lung
2.77 µM: DU-145 prostate
> 100 µM: OVCAR-5 ovarian | SK-OV-3 ovarian | HT29 colon | SW-620 colon | M14 melanoma | PC-3 prostate | NCI-H226 lung | SF-268 CNS | LOX IMVI melanoma | K-562 leukemia | HOP-62 NSCLC | A549 NSCLC | HCT-15 colon | OVCAR-3 ovarian
0.34 µM: HCC-2998 colon
0.594 µM: SR leukemia
0.304 µM: UACC-62 melanoma
0.507 µM: MALME-3M melanoma
> 40.9 µM: U251 CNS
0.697 µM: OVCAR-4 ovarian

O=C1CSc2nnc(CCCCCCCCc3nnc4n3NC(=O)CS4)n2N1
75.2 µM: NCI-H522 lung
51.1 µM: CCRF-CEM leukemia
not listed: TK-10 renal | SK-MEL-5 melanoma | LOX IMVI melanoma | RXF 393 renal | HS 578T breast
> 100 µM: all other assays above
